Results published in patent US9260710B2, “Photocleavable linker” (City of Hope, priority 2012, dated 2016).

Experiments:
[1] = system: TcTex1 and FKBP-IC peptide (TcTex1 trap); assay: Native PAGE and SEC of TcTex1 / TcTex-trap complex formation with AP20187; format: biochemical
Excerpt: To generate a TcTex1 trap, residues 107-125 of rat dynein IC2C, which specifically interact with TcTex1, were fused to the C-terminus of FKBP (FKBP-IC; FIG. 10D). […] However, addition of AP20187 to the admixture of FKBP-IC (L112A) peptide and TcTex1 produced a shift, but required a 16-fold higher concentration of AP20187 than the LC8/LC8-trap interaction (FIG. 10E, round 2). Based on this observation, we hypothesized that the sequence immediately preceding the TcTex1-binding region may interfere with the interaction, either through conformational restriction due to P109 or electrostatic repulsion due to K111. Therefore, we mutated the sequence PIK to GGS, to introduce flexible, hydrophilic residues (residues 109-111) (FIG. 10D).

[2] = system: GFP IC trap transfected Cos1 cells; assay: Organelle dispersion and microtubule array in cells expressing the IC trap; format: cell-based
Description: FIGS. 13A-13B. FIGS. 13A-13B depict that induction of IC traps leads to Endosome (FIG. 13A) and Golgi apparatus (FIG. 13B) dispersion. Cos1 cells were transfected with the GFP IC trap (upper rights panels of FIGS. 13A and 13B) for 24 h and then treated with AP20187 for 1 h. The cells were stained with DAPI for nuclei (upper left panels of FIGS. 13 A and 13B) and EEA1 for endosomes (FIG. 13A, lower left panel)) or GM130 marker for Golgi bodies (FIG. 13B, lower left panel). Note the endosomes and Golgi apparatus are dispersed (marked “d”) within 10 min and 1 h, respectively. Cells not containing the IC trap all show compact endosomes and Golgi bodies (marked “c”). Scale bar is 5 μm.
As a test for effects on cytoplasmic dynein functions that are distinct from vesicular transport, we monitored mitotic behavior in cells expressing either the LC8- or TcTex1-traps. We observed little effect on either mitotic index or the fraction of mitotic cells at discrete mitotic stages with either trap (data not shown). […] Finally, similar studies were carried out using the IC trap. As before, we observed little or no change in the dispersion of endosomes and Golgi apparatus before AP20187 treatment. Induction of dimerization through the addition of AP20187 (1 μM) produced immediate changes in both organelles. After 4 h, 81+4% of cells contained dispersed endosomes and 68+3% of cells contained dispersed Golgi. […] The precise reason for this difference is not clear; however, currently, we attribute this to a change in the cytoskeleton, but this must still be verified. We are also in the process of measuring the effect of sequestering the dynein IC on mitotic behavior.
Microtubule architecture. Known methods of inhibiting cytoplasmic dynein, such as expression of dynactin polypeptides or RNAi against the dynein regulatory factors NudEL and ZW10, cause disorganization of the radial microtubule (MT) network in cultured mammalian cells 52-54. […] This is consistent with previous studies where overexpressing a dimeric form of the IC trap (e.g., CC1 of p150glued) also disrupts of the MT array).

[3] = modified FKBP-IC trap, PIK to GGS (round 3)
[4] = Cos1 cells, after AP20187 addition

CCC(C(=O)N1CCCCC1C(=O)OC(CCc1ccc(OC)c(OC)c1)c1cccc(OCC(=O)NCC(CNC(=O)COc2cccc(C(CCc3ccc(OC)c(OC)c3)OC(=O)C3CCCCN3C(=O)C(CC)c3cc(OC)c(OC)c(OC)c3)c2)CN(C)C)c1)c1cc(OC)c(OC)c(OC)c1 (centres unmarked) [AP, AP20187]
fold higher concentration of AP20187 required for shift than the LC8/LC8-trap interaction ([1]; FKBP-IC (L112A) peptide and TcTex1 (round 2)): 16 fold | concentration of AP20187 to fully sequester TcTex1 relative to that required for the LC8-trap [1, 3]: approximately twice | fold lower concentration of AP20187 to fully sequester TcTex1 than the FKBP-IC (L112A) peptide [1, 3]: ~8 fold | cells containing dispersed Golgi ([2]; AP20187 1 μM, after 4 h): 68+3% | cells containing dispersed endosomes ([2]; AP20187 1 μM, after 4 h): 81+4% | microtubule (MT) radial array ([2]; AP20187-induced dimerization of the IC trap): significantly disrupted | time within which Golgi apparatus is dispersed [2, 4]: ≤ 1 h | time within which endosomes are dispersed [2, 4]: ≤ 10 min
